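Compound exposure: 48 hours, 5 concentrations, 96-well plates. Abbreviation: GI50, concentration required for 50% inhibition of growth.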 Active and inactive are the calls of the source. No stated cut-off is given here; in the data, active = GI50 up to about 1.1 µM and inactive = higher.
Experiments:
Assay in all cases: NCI tumour cell line growth inhibition, 48 h
A549 = test system: A549
NCI-H522 = test system: NCI-H522
U-251 = test system: U-251
HL-60 = test system: HL-60
OVCAR-8 = test system: OVCAR-8
OVCAR-4 = test system: OVCAR-4
MOLT-4 = test system: MOLT-4
UACC-257 = test system: UACC-257
HCT-15 = test system: HCT-15
A498 = test system: A498
ACHN = test system: ACHN
SNB-19 = test system: SNB-19
COLO 205 = test system: COLO 205
SNB-75 = test system: SNB-75
BT-549 = test system: BT-549
SR = test system: SR
DU-145 = test system: DU-145
M14 = test system: M14
Malme-3M = test system: Malme-3M
HCC 2998 = test system: HCC 2998

Row | SMILES | GI50 (A549) | GI50 (NCI-H522) | GI50 (U-251) | GI50 (HL-60) | GI50 (OVCAR-8) | GI50 (OVCAR-4) | GI50 (MOLT-4) | GI50 (UACC-257) | GI50 (HCT-15) | GI50 (A498) | GI50 (ACHN) | GI50 (SNB-19) | GI50 (COLO 205) | GI50 (SNB-75) | GI50 (BT-549) | GI50 (SR) | GI50 (DU-145) | GI50 (M14) | GI50 (Malme-3M) | GI50 (HCC 2998)
1 | Cc1nc(O)c(O)c(CN2CCCCC2)n1 | > 100 µM (inactive) | > 100 µM (inactive) | > 100 µM (inactive) | 42.7 µM (inactive) | > 100 µM (inactive) | > 100 µM (inactive) | > 100 µM (inactive) | > 100 µM (inactive) | > 100 µM | > 100 µM (inactive) | > 100 µM (inactive) | > 100 µM (inactive) | > 100 µM (inactive) | > 100 µM (inactive) | > 100 µM (inactive) | > 100 µM (inactive) | > 100 µM (inactive) | > 100 µM (inactive) | > 100 µM (inactive) | –
2 | CCOC(=O)c1c(N2CCCC2)[nH]c(=O)c(C(c2ccc(Cl)c([N+](=O)[O-])c2)c2c(O)c(C(=O)OCC)c(N3CCCC3)[nH]c2=O)c1O | > 100 µM (inactive) | 24.5 µM (inactive) | 14.9 µM (inactive) | – | 15.5 µM (inactive) | > 100 µM (inactive) | 46.6 µM (inactive) | 41.5 µM (inactive) | > 100 µM | 33 µM (inactive) | 34.3 µM (inactive) | 15.5 µM (inactive) | > 100 µM (inactive) | 9.86 µM (inactive) | 16.3 µM (inactive) | 40.3 µM (inactive) | 60.8 µM (inactive) | 20.8 µM (inactive) | 38.9 µM (inactive) | > 100 µM (inactive)
3 | CC[C@H]1C=CCC[C@@]2(C[C@@H]3CC[C@H]4[C@H](C(=O)OCCCCCCCCCCCCCCCC(=O)N(CCCN)C[C@@H](O)CCN)[C@]5(CCC[C@@H](C)O5)NC(=[N+]34)N2)O1 | 0.48 µM (active) | 1.04 µM (active) | 0.378 µM (active) | 0.345 µM (active) | 0.693 µM (active) | 0.863 µM (active) | 0.27 µM (active) | 0.604 µM (active) | 0.723 µM | 1.45 µM (inactive) | 0.513 µM (active) | 1.21 µM (inactive) | 0.342 µM (active) | – | 1.71 µM (inactive) | 0.323 µM (active) | 1.1 µM (active) | 0.231 µM (active) | 0.196 µM (active) | 0.575 µM (active)
4 | O=C(C(Cl)=C(Nc1ccccc1)Nc1ccccc1)C(Cl)Cl | 38.5 µM (inactive) | 19.7 µM (inactive) | – | 17.4 µM (inactive) | 17.3 µM (inactive) | 36.1 µM (inactive) | 16 µM (inactive) | 82.8 µM (inactive) | 11 µM | 24.8 µM (inactive) | 27.5 µM (inactive) | 26.2 µM (inactive) | 30.6 µM (inactive) | – | 37.2 µM (inactive) | 16.5 µM (inactive) | 51.2 µM (inactive) | 16.8 µM (inactive) | 20.3 µM (inactive) | 19 µM (inactive)
5 | CSc1nc(=S)[nH]c2c1c(C)nn2-c1ccccc1 | 31.3 µM (inactive) | 19.1 µM (inactive) | 29.4 µM (inactive) | 28.1 µM (inactive) | – | 17.2 µM (inactive) | 14.2 µM (inactive) | 20.5 µM (inactive) | 20.3 µM | 30.5 µM (inactive) | 21.9 µM (inactive) | 23.3 µM (inactive) | 20.1 µM (inactive) | – | 19.7 µM (inactive) | 11.2 µM (inactive) | 15.6 µM (inactive) | 40.5 µM (inactive) | 17.1 µM (inactive) | 30.6 µM (inactive)
6 | Clc1ccccc1-c1nnc2c(-c3ccccc3)nc3ccccc3n12 | > 100 µM (inactive) | – | > 100 µM (inactive) | 54.5 µM (inactive) | – | > 100 µM (inactive) | 42.6 µM (inactive) | > 100 µM (inactive) | > 100 µM | > 100 µM (inactive) | > 100 µM (inactive) | > 100 µM (inactive) | > 100 µM (inactive) | – | > 100 µM (inactive) | 45.2 µM (inactive) | > 100 µM (inactive) | > 100 µM (inactive) | 61.7 µM (inactive) | > 100 µM (inactive)
7 | CC(=O)N1CCn2c1nc1cc(Cl)ccc12 | > 100 µM (inactive) | 42.5 µM (inactive) | 37.8 µM (inactive) | > 100 µM (inactive) | 74.3 µM (inactive) | > 100 µM (inactive) | > 100 µM (inactive) | > 100 µM (inactive) | 35.2 µM | > 100 µM (inactive) | 34.4 µM (inactive) | 69 µM (inactive) | > 100 µM (inactive) | – | > 100 µM (inactive) | > 100 µM (inactive) | 33.4 µM (inactive) | > 100 µM (inactive) | > 100 µM (inactive) | > 100 µM (inactive)
8 | C[N+](C)(C)c1nc(N)nc2c1ncn2C1OC(CO)C(O)C1O (stereo not drawn) | > 100 µM (inactive) | > 100 µM (inactive) | > 100 µM (inactive) | – | > 100 µM (inactive) | > 100 µM (inactive) | > 100 µM (inactive) | > 100 µM (inactive) | > 100 µM | > 100 µM (inactive) | > 100 µM (inactive) | > 100 µM (inactive) | > 100 µM (inactive) | > 100 µM (inactive) | > 100 µM (inactive) | > 100 µM (inactive) | > 100 µM (inactive) | > 100 µM (inactive) | > 100 µM (inactive) | > 100 µM (inactive)
9 | CCCCCC#CCOC(=O)C(=[N+]=[N-])P(=O)(c1ccccc1)c1ccccc1 | > 10 µM (inactive) | – | > 10 µM (inactive) | > 10 µM (inactive) | > 10 µM (inactive) | – | > 10 µM (inactive) | > 10 µM (inactive) | > 10 µM | > 10 µM (inactive) | > 10 µM (inactive) | > 10 µM (inactive) | – | > 10 µM (inactive) | > 10 µM (inactive) | > 10 µM (inactive) | > 10 µM (inactive) | > 10 µM (inactive) | > 10 µM (inactive) | > 10 µM (inactive)
10 | O=C(CCc1ccccc1CO)NCCc1ccccc1 | > 100 µM (inactive) | > 100 µM (inactive) | > 100 µM (inactive) | 72.4 µM (inactive) | > 100 µM (inactive) | 59.6 µM (inactive) | > 100 µM (inactive) | > 100 µM (inactive) | > 100 µM | > 100 µM (inactive) | > 100 µM (inactive) | 15.9 µM (inactive) | > 100 µM (inactive) | 49.1 µM (inactive) | > 100 µM (inactive) | > 100 µM (inactive) | > 100 µM (inactive) | > 100 µM (inactive) | – | > 100 µM (inactive)
11 | Nc1c(S(=O)(=O)O)cc(Nc2cccc(S(N)(=O)=O)c2)c2c1C(=O)c1ccccc1C2=O | > 100 µM (inactive) | 57.8 µM (inactive) | 46.5 µM (inactive) | > 100 µM (inactive) | > 100 µM (inactive) | > 100 µM (inactive) | > 100 µM (inactive) | 54.2 µM (inactive) | 84.5 µM | > 100 µM (inactive) | > 100 µM (inactive) | > 100 µM (inactive) | 38.1 µM (inactive) | 29.6 µM (inactive) | > 100 µM (inactive) | > 100 µM (inactive) | > 100 µM (inactive) | 50.6 µM (inactive) | 36.5 µM (inactive) | –

From ChEMBL document CHEMBL1201862, “PubChem BioAssay data set” (2004)
